Laboratory results: US20150335719A1, “Intravitreal Injection of a Chimeric Phage Endolysin Ply187; Protection from Staphylococcus aureus Endophthalmitis” (priority 2014, published 2015)

Experiments:
S. aureus strain RN6390 = test: Resistance development assay by repeated exposure in an MIC assay; format: cell-based, Staphylococcus aureus; details: RN6390, up to 10 rounds of exposure
Method: Error bars represent SEM for three independent experiments performed in triplicates. […] Cells surviving at half (½) of the MIC value were used as an inoculum for each subsequent round of exposure. The change in susceptibility is recorded and presented as fold change resistance from day 1 to 10 of exposure and also after 5 days of growth (without any selection pressure) following the 10th day (represented as 10+5). The data represent means±SEM of two independent experiments performed in triplicate.
To verify and quantify the lytic activity against live S. aureus, we have tested Ply187AN-KSH3b in the Turbidity Reduction Assay. The turbidity assay measures the drop in optical density (OD) resulting from lysis of the target bacteria with the phage endolysin-derived protein. Turbidity reduction assays by chimeric Ply187AN-KSH3b were performed in a 96 well plate as described previously by Becker et al. (2009a, 2009b, supra). Briefly, S. aureus strains/isolates RN6390, USA 300, and clinical isolates R2932, R2952 and R3000 were grown to logarithmic phase (OD600 0.4-0.6) at 37° C. in tryptic Soy broth (TSB). The culture was harvested by centrifugation and the pellet was resuspended in assay buffer (400 mM NaCl, 20 mM Tris HCl, 1% glycerol, pH 7.5). Bacterial cultures (100 μl/well) were mixed with 100 μl of (as per MIC) of chimeric Ply187AN-KSH3b protein diluted in the same assay buffer. The reduction in the turbidity was measured after every 5 min up to 1 h using a micro plate reader. EB diluted in the same assay buffer (without chimeric Ply187AN-KSH3b protein) was used as a control (EB C). Resistance development against chimeric Ply187AN-KSH3b was tested using repeated exposure in an MIC assay as described by Rodriguez-Rubio and co-workers (Rodriguez-Rubio et al., PLoS One 8:e64671.). In brief, bacterial cultures (10^5 CFU/well) were exposed overnight to a 2-fold serial dilution of chimeric Ply187AN-KSH3b, lysostaphin, and gentamicin, where the latter serve as controls. […]

[1] = system: S. aureus (strain RN6390, USA 300, R 2932, R 2952, R 3000) biofilms; test: Biofilm disruption (Live/Dead BacLight staining and CFU count); format: cell-based, Staphylococcus aureus; details: 24 h biofilms treated for 30 min
Method: FIGS. 2A-2E depicts the biofilm disruption activity of chimeric Ply187AN-KSH3b. In FIG. 2A-2E, either chimeric Ply187AN-KSH3b or EB (EB C) or Gentamicin (for MDR/MRSA strains/isolates) was applied to cover slips containing S. aureus RN6390 (FIG. 2A), USA 300 (FIG. 2B), R 2932 (FIG. 2C), R 2952 (FIG. 2D) and R3000 (FIG. 2E) biofilms for 30 min. Bacterial killing was assessed via Live/Dead™ staining and subsequent fluorescence microscopy. FIG. 2F depicts the viability of biofilm associated bacteria enumerated by CFU count. Error bars represent the mean±SEM of two independent experiments performed in triplicate.
Biofilm disruption by the chimeric Ply187AN-KSH3b was observed using Live/Dead BacLight™ staining which takes advantage of SYTO™ 9, a green-fluorescent nucleic acid stain and propidium iodide that fluoresces red. SYTO™ 9 labels a bacterial population with an intact membrane and fluoresces green. In contrast, propidium iodide penetrates bacteria with damaged membranes and fluoresces red. Briefly, static biofilms of S. aureus (strain RN6390, USA 300, R 2932, R 2952, R 3000) were grown on glass cover slips in 6 well tissue culture plates in fresh TSB media seeded with S. aureus. After incubation at 37° C. for 24 h, the biofilms were treated for an additional 30 min with chimeric Ply187AN-KSH3b (as per MIC) diluted in EB or with EB/gentamicin alone. The biofilms were then stained with the Live/Dead BacLight™ bacterial viability kit (Invitrogen, Carlsbad, Calif.), per manufacturer's instruction. The cover slips were washed three times with PBS to remove excess stain and cell debris, mounted with mounting oil on a glass slide, and examined with an Eclipse 90i fluorescence microscope (Nikon, Melville, N.Y.).

Row | Substance | fold change in resistance (S. aureus strain RN6390) [fold] | biofilm disruption by Live/Dead staining [1]
1 | lysostaphin | 128 | 
2 | gentamicin [reference compound] | 16 | green fluorescence
